The values below come from patent US9296751B1, “Indolizino[3,2-c]quinoline derivatives, pharmaceutically acceptable salt thereof, preparation method thereof and pharmaceutical composition for treatment of cystic fibrosis containing the same as active ingredient” (INDUSTRY-ACADEMIC COOPERATION FOUNDATION, YONSEI UNIVERSITY, priority 2014, dated 2016).

Data set [1] deals with T1, human cystic fibrosis conductance transmembrane regulator (CFTR) (Homo sapiens, UniProt P13569).
T1 construct: expressed in transfected cells; host or cells: FRT cells (Fischer rat thyroid epithelial cells)
Description: Effect upon CFTR chloride ion channel activity (YFP fluorescence quenching by iodide influx in FRT cells). The data set is classed as cell-based. As to conditions: for CFTR activity ratio, result in words: 30 μM, comment on Table 2; for Emax at 30 µM: FRT, 10 min, final concentration of 30 μM, reaction for 10 minutes, ratio based on the CFTR activity maximized by forskolin. The protocol: FRT cells expressing […] specific to human cystic fibrosis conductance transmembrane regulator (CFTR) and iodide ions are cultured in the Coon's modified F-12 culture medium for 48 hours on a 96-well plate. Each well of the plate containing the cultured cells is washed three times with 200 μl of PBS buffer, and then 100 μl of PBS buffer is added to each well. The indolizino[3,2-c]quinoline derivative according to each Example is introduced to each well to a final concentration of 30 μM, followed by reaction for 10 minutes. After the completion of the reaction, the 96-well is mounted to a FLUOstar Omega microplate reader (BMG LABTECH) and 100 μl of NaI solution is added to each well. Then, YFP fluorescence reduced by the iodide ions introduced to the cells through CFTR is recorded at an interval of 0.4 seconds for 24 seconds in total, thereby evaluating the effect of each compound upon CFTR activity.
The effect of each indolizino[3,2-c]quinoline derivative upon CFTR chloride ion channel activity is calculated as an activity ratio based on the CFTR activity maximized by a well-known CFTR agonist, forskolin.

T1 sequence (P13569 whole entry): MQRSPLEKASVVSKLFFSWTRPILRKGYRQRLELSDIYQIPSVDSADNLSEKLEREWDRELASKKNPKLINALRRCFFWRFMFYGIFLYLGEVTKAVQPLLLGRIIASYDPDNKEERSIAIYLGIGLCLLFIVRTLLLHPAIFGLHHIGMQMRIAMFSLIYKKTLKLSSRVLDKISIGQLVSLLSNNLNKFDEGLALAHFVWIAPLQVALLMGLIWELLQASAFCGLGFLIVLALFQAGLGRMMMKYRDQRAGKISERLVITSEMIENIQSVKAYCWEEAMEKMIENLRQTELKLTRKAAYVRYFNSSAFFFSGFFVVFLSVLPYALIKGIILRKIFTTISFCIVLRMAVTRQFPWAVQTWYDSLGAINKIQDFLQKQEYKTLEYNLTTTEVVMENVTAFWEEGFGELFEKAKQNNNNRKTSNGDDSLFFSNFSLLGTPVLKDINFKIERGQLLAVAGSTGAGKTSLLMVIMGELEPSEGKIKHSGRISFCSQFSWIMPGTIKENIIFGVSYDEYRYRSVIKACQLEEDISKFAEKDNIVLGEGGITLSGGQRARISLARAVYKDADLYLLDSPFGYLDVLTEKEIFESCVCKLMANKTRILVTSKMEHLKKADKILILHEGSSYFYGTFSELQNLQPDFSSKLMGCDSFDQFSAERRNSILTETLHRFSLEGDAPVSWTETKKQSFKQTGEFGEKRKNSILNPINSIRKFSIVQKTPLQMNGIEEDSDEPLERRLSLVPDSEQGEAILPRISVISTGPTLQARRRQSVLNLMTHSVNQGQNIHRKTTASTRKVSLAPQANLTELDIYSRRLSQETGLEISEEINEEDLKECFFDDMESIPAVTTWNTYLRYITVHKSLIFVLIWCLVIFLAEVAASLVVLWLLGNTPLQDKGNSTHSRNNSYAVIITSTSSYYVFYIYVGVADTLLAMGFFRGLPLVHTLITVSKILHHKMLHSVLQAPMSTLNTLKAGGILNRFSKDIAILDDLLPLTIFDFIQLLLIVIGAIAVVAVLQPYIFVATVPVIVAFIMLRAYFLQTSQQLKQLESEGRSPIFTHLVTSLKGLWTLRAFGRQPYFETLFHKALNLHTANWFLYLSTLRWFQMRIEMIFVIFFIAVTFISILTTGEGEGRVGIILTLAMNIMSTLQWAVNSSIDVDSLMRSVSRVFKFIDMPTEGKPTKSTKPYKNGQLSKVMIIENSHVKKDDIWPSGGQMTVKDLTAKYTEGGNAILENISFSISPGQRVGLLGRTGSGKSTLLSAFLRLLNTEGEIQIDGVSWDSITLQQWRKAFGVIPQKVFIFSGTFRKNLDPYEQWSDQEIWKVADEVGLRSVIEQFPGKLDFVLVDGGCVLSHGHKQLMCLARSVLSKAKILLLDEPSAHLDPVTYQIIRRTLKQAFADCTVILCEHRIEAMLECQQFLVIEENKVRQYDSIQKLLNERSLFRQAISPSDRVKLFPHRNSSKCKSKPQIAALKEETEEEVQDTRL

Regarding `Brc1ccc(-c2nc3ccccc3c3cc4ccccn4c23)cc1` [Example 1, 6-(4-Bromophenyl)indolizino[3,2-c]quinoline], the melting point was in the range of 205.5 to 205.8 °C. Moreover, in data set [1], the “CFTR activity ratio, result in words” value is listed as “high activity ratio” and the maximal effect (Emax) at 30 µM was 85%.

On to `Fc1ccc(-c2nc3ccccc3c3cc4ccccn4c23)cc1` [Example 2, 6-(4-Fluorophenyl)indolizino[3,2-c]quinoline], for which the melting point lay in the range of 167 to 167.4 °C.

As to `Clc1ccc(-c2nc3ccccc3c3cc4ccccn4c23)cc1` [Example 3, 6-(4-Chlorophenyl)indolizino[3,2-c]quinoline], the melting point fell in the range of 190.5 to 191 °C.

On to `Clc1cccc(-c2nc3ccccc3c3cc4ccccn4c23)c1` [Example 4, 6-(3-Chlorophenyl)indolizino[3,2-c]quinoline], for which the melting point was 124.3 to 125.3 °C.

The compound `O=[N+]([O-])c1ccc(-c2nc3ccccc3c3cc4ccccn4c23)cc1` [Example 5, 6-(4-Nitrophenyl)indolizino[3,2-c]quinoline] returned a melting point of 246.3 to 246.5 °C. Also, in data set [1], the “CFTR activity ratio, result in words” value is “high activity ratio” and the Emax at 30 µM stood at 93%.

Take `c1ccc(-c2nc3ccccc3c3cc4ccccn4c23)cc1` [Example 6, 6-Phenylindolizino[3,2-c]quinoline]: the melting point lay within 141.9 to 142.8 °C.

Turning to `COc1ccc(-c2nc3ccccc3c3cc4ccccn4c23)cc1` [Example 7, 6-(4-Methoxyphenyl)indolizino[3,2-c]quinoline], the melting point is 164.3 to 164.7 °C.

For `COc1cccc(-c2nc3ccccc3c3cc4ccccn4c23)c1` [Example 8, 6-(3-Methoxyphenyl)indolizino[3,2-c]quinoline], the melting point was 174 to 174.4 °C.

In turn, `Cc1ccc(-c2nc3ccccc3c3cc4ccccn4c23)cc1` [Example 9, 6-(p-Tolyl)indolizino[3,2-c]quinoline] registered a melting point of 85.3 to 86 °C.

The compound `COc1cc(OC)cc(-c2nc3ccccc3c3cc4ccccn4c23)c1` [Example 10, 6-(3,5-Dimethoxyphenyl)indolizino[3,2-c]quinoline] displayed a melting point of 139.7 to 140.4 °C. Moreover, in data set [1], the “CFTR activity ratio, result in words” value is “high activity ratio” and the Emax at 30 µM amounted to 63%.

Regarding `COc1ccc(-c2nc3ccccc3c3cc4ccccn4c23)cc1OC` [Example 11, 6-(3,4-Dimethoxyphenyl)indolizino[3,2-c]quinoline], the melting point was in the range of 91.3 to 92 °C.

In turn, `c1ccc2cc(-c3nc4ccccc4c4cc5ccccn5c34)ccc2c1` [Example 13, 6-(Naphthalen-2-yl)indolizino[3,2-c]quinoline] came in with a melting point of 205.6 to 206.2 °C. In data set [1], the “CFTR activity ratio, result in words” value is reported as “high activity ratio” and the maximum response (Emax) at 30 µM worked out at 83%.

Consider `Clc1ccc(-c2nc3ccccc3c3cc4ccccn4c23)s1` [Example 15, 6-(5-Chlorothiophen-2-yl)indolizino[3,2-c]quinoline], for which the melting point lay in the range of 161.4 to 161.7 °C. In data set [1], the “CFTR activity ratio, result in words” value is reported as “high activity ratio” and the maximal effect (Emax) at 30 µM came to 98%.

In turn, `Cc1cccn2c1cc1c3ccccc3nc(-c3cccc(F)c3)c12` [Example 17, 6-(3-Fluorophenyl)-11-methylindolizino[3,2-c]quinoline] returned a melting point of 176.1 to 176.5 °C. Further, the Emax at 30 µM in data set [1] worked out at 50%.

As to `Cc1cccn2c1cc1c3ccccc3nc(-c3ccc([N+](=O)[O-])cc3)c12` [Example 18, 11-Methyl-6-(4-nitrophenyl)indolizino[3,2-c]quinoline], the melting point was in the range of 259.7 to 260.4 °C.

`COc1cccc(-c2nc3ccccc3c3cc4c(C)cccn4c23)c1` [Example 19, 6-(3-Methoxyphenyl)-11-methylindolizino[3,2-c]quinoline] returned a melting point of 165 to 166 °C.

In the case of `Cc1ccc(-c2nc3ccccc3c3cc4c(C)cccn4c23)cc1` [Example 20, 11-Methyl-6-(p-tolyl)indolizino[3,2-c]quinoline], the melting point lay in the range of 162.5 to 163.1 °C.

Consider `COc1cc(OC)cc(-c2nc3ccccc3c3cc4c(C)cccn4c23)c1` [Example 21, 6-(3,5-Dimethoxyphenyl)-11-methylindolizino[3,2-c]quinoline], for which the melting point lay within 185.8 to 186.4 °C. Further, in data set [1], the maximum response (Emax) at 30 µM was found to be 66%.

`COc1ccc(-c2nc3ccccc3c3cc4c(C)cccn4c23)cc1OC` [Example 22, 6-(3,4-Dimethoxyphenyl)-11-methylindolizino[3,2-c]quinoline] displayed a melting point of 162.8 to 163.3 °C.

Compound `COc1ccc(-c2nc3ccccc3c3cc4ccc(Br)cn4c23)cc1` [Example 24, 9-Bromo-6-(4-methoxyphenyl)indolizino[3,2-c]quinoline] returned a melting point of 229.5 to 230 °C.

As to `Cc1ccc(-c2nc3ccccc3c3cc4ccc(Br)cn4c23)cc1` [Example 25, 9-Bromo-6-(p-tolyl)indolizino[3,2-c]quinolone], the melting point lay in the range of 230.8 to 231.2 °C.

With `COc1ccc(-c2nc3ccccc3c3cc4ccc(Br)cn4c23)cc1OC` [Example 26, 9-Bromo-6-(3,4-dimethoxyphenyl)indolizino[3,2-c]quinoline], the melting point is 188.5 to 189 °C.

`Brc1ccc2cc3c4ccccc4nc(-c4ccc(Br)s4)c3n2c1` [Example 28, 9-Bromo-6-(5-bromothiophen-2-yl)indolizino[3,2-c]quinoline] registered a melting point of 223.3 to 223.7 °C.

`Brc1ccc2cc3c4ccccc4nc(-c4ccco4)c3n2c1` [Example 29, 9-Bromo-6-(furna-2-yl)indolizino[3,2-c]quinoline] came in with a melting point of 193.3 to 193.6 °C.

As for `COC(=O)c1c2c3ccccc3nc(-c3ccc(Br)cc3)c2n2ccccc12` [Example 30, Methyl 6-(4-bromophenyl)indolizino[3,2-c]quinoline-12-carboxylate], the melting point lay in the range of 232.3 to 232.5 °C.

`COC(=O)c1c2c3ccccc3nc(-c3cc(OC)cc(OC)c3)c2n2ccccc12` [Example 31, Methyl 6-(3,5-dimethoxyphenyl)indolizino[3,2-c]quinoline-12-carboxylate] displayed a melting point of 205.9 to 206.3 °C. Besides, the “CFTR activity ratio, result in words” value in data set [1] was “high activity ratio”.

In turn, `COC(=O)c1c2c3ccccc3nc(-c3cccc4ccccc34)c2n2ccccc12` [Example 32, Methyl 6-(naphthalene-1-yl)indolizino[3,2-c]quinoline-12-carboxylate] came in with a melting point of 245.8 to 246.2 °C.

Compound `COC(=O)c1c2c3ccccc3nc(-c3ccc[nH]3)c2n2ccccc12` [Example 33, Methyl 6-(1H-pyrrol-2-yl)indolizino[3,2-c]quinoline-12-carboxylate] returned a melting point of 230.8 to 231.4 °C. Besides, the Emax at 30 µM in data set [1] worked out at 37%.

With `CCOC(=O)c1c2c3ccccc3nc(-c3cccc(F)c3)c2n2ccccc12` [Example 34, Ethyl 6-(3-fluorophenyl)indolizino[3,2-c]quinoline-12-carboxylate], the melting point lay in the range of 202.1 to 202.4 °C.

Regarding `CCOC(=O)c1c2c3ccccc3nc(-c3cccc(Cl)c3)c2n2ccccc12` [Example 35], the melting point was in the range of 214.3 to 214.5 °C.

Turning to `CCOC(=O)c1c2c3ccccc3nc(-c3ccc([N+](=O)[O-])cc3)c2n2ccccc12` [Example 36, Ethyl 6-(4-nitrophenyl)indolizino[3,2-c]quinoline-12-carboxylate], the melting point fell in the range of 245.8 to 246.1 °C.

On to `CCOC(=O)c1c2c3ccccc3nc(-c3cccc(OC)c3)c2n2ccccc12` [Example 37, Ethyl 6-(3-methoxyphenyl)indolizino[3,2-c]quinoline-12-carboxylate], for which the melting point is 173.4 to 173.8 °C.

`CCOC(=O)c1c2c3ccccc3nc(-c3ccc(OC)c(OC)c3)c2n2ccccc12` [Example 38, Ethyl 6-(3,4-dimethoxyphenyl)indolizino[3,2-c]quinoline-12-carboxylate] came in with a melting point of 195.5 to 195.8 °C. Moreover, in data set [1], the Emax at 30 µM is 31%.

With `CCOC(=O)c1c2c3ccccc3nc(-c3ccc4ccccc4c3)c2n2ccccc12` [Example 39, Ethyl 6-(naphthalene-2-yl)indolizino[3,2-c]quinoline-12-carboxylate], the melting point lay in the range of 210.3 to 210.7 °C.

In turn, `COc1ccc(-c2nc3ccccc3c3cc4ccc(-c5ccc([N+](=O)[O-])cc5)cn4c23)cc1` [Example 41, 6-(4-Methoxyphenyl)-9-(4-nitrophenyl)indolizino[3,2-c]quinoline] yielded a melting point of 256 to 256.6 °C.

`COc1cc(OC)cc(-c2ccc3cc4c5ccccc5nc(-c5cccc6ccccc56)c4n3c2)c1` [Example 42, 9-(3,5-Dimethoxyphenyl)-6-(naphthalene-1-yl)indolizino[3,2-c]quinoline] registered a melting point of 177.5 to 177.8 °C.

The compound `c1ccc2c(-c3nc4ccccc4c4cc5ccc(-c6ccoc6)cn5c34)cccc2c1` [Example 43, 9-(Furan-3-yl)-6-(naphthalene-1 yl)indolizino[3,2-c]quinoline] yielded a melting point of 91.3 to 92 °C.

The compound `COc1ccc(-c2nc3ccccc3c3c(Br)c4ccccn4c23)cc1` [Example 44, 12-Bromo-6-(4-methoxyphenyl)indolizino[3,2-c]quinoline] yielded a melting point of 221.6 to 221.9 °C.

The Emax is the size of the effect at its maximum, as opposed to the concentration needed. In general, melting point refers to the temperature of the solid-liquid transition.
